Experimental data from patent US9771389B2, “Tylosin derivatives and method for preparation thereof” (BAYER ANIMAL HEALTH GMBH, priority 2013, dated 2017).
Converted amounts (≈) assume the structure as drawn.

Legend:
[1] = system: Mannheimia haemolytica, 3 isolates; assay: MIC against Mannheimia haemolytica isolates; assay type: cell-based; conditions: Mannheimia haemolytica, 3ISOLATES, 3 Mannheimia haemolytica isolates; broth dilution method; read-out: Range of minimum inhibitory concentrations (MIC)
Experimental: (§1) Minimal inhibitory concentrations (MICs) were determined against the most prevalent pathogens in cattle (Mannheimia Haemolytica, 3 isolates) and swine (A. pleuropneumoniae, 6 isolates). In addition the activity of several compounds was tested against two bacterial species, i.e. Mannheimia haemolytica and Actinobacillus pleuropneumoniae, which are considered as the most important bacterial respiratory pathogens in cattle and swine, respectively.

[2] = system: Actinobacillus pleuropneumoniae, 6 isolates; assay: MIC against Actinobacillus pleuropneumoniae isolates; assay type: cell-based; conditions: 6ISOLATES; 6 Actinobacillus pleuropneumoniae isolates; broth dilution method; read-out: Range of minimum inhibitory concentrations (MIC)
Experimental: as §1

MIC [2] [µg/mL]	SMILES	MIC [1] [µg/mL]
2 (≈ 2.31 µM)	CC[C@H]1OC(=O)C[C@@H](O)[C@H](C)[C@@H](O[C@@H]2OC(C)[C@@H](O)C(N(C)C)C2O)[C@@H](CCN(CCn2cc(-c3ccsc3)nn2)Cc2ccccc2)C[C@@H](C)C(=O)/C=C/C(C)=C/[C@@H]1CO (some centres unmarked) [YT674]	2 to 4 (≈ 2.31 to 4.62 µM)
8 (≈ 8.11 µM)	CC[C@H]1OC(=O)C[C@@H](O)[C@H](C)[C@@H](O[C@@H]2OC(C)[C@@H](O)C(N(C)C)C2O)[C@@H](CCN(CCn2cc(-c3ccccc3)nn2)Cc2ccc(I)cc2)C[C@@H](C)C(=O)/C=C/C(C)=C/[C@@H]1CO (some centres unmarked) [YT700]	4 to 8 (≈ 4.06 to 8.11 µM)
8 (≈ 8.06 µM)	CC[C@H]1OC(=O)C[C@@H](O)[C@H](C)[C@@H](O[C@@H]2OC(C)[C@@H](O)C(N(C)C)C2O)[C@@H](CCN(CCn2cc(-c3ccsc3)nn2)Cc2ccc(I)cc2)C[C@@H](C)C(=O)/C=C/C(C)=C/[C@@H]1CO (some centres unmarked) [YT705]	8 (≈ 8.06 µM)
4 (≈ 4.87 µM)	CC[C@H]1OC(=O)C[C@@H](O)[C@H](C)[C@@H](O[C@@H]2OC(C)[C@@H](O)C(N(C)C)C2O)[C@@H](CCN(C)Cc2cn(-c3ccc4ncccc4c3)nn2)C[C@@H](C)C(=O)/C=C/C(C)=C/[C@@H]1CO (some centres unmarked) [YT710]	2 to 4 (≈ 2.44 to 4.87 µM)
4 (≈ 5.15 µM)	CC[C@H]1OC(=O)C[C@@H](O)[C@H](C)[C@@H](O[C@@H]2OC(C)[C@@H](O)C(N(C)C)C2O)[C@@H](CCNCCn2cc(-c3ccsc3)nn2)C[C@@H](C)C(=O)/C=C/C(C)=C/[C@@H]1CO (some centres unmarked) [YT717]	2 to 8 (≈ 2.58 to 10.3 µM)
8 (≈ 9.82 µM)	CC[C@H]1OC(=O)C[C@@H](O)[C@H](C)[C@@H](O[C@@H]2OC(C)[C@@H](O)C(N(C)C)C2O)[C@@H](CCNCCn2cc(-c3ccccc3[N+](=O)[O-])nn2)C[C@@H](C)C(=O)/C=C/C(C)=C/[C@@H]1CO (some centres unmarked) [YT718]	2 to 8 (≈ 2.45 to 9.82 µM)
8 (≈ 9.85 µM)	CC[C@H]1OC(=O)C[C@@H](O)[C@H](C)[C@@H](O[C@@H]2OC(C)[C@@H](O)C(N(C)C)C2O)[C@@H](CCNCCn2cc(-c3cc(C)c(C)cc3C)nn2)C[C@@H](C)C(=O)/C=C/C(C)=C/[C@@H]1CO (some centres unmarked) [YT723]	2 to 8 (≈ 2.46 to 9.85 µM)
8 (≈ 10.9 µM)	CC[C@H]1OC(=O)C[C@@H](O)[C@H](C)[C@@H](O[C@@H]2OC(C)[C@@H](O)C(N(C)C)C2O)[C@@H](CCn2cc(-c3ccsc3)nn2)C[C@@H](C)C(=O)/C=C/C(C)=C/[C@@H]1CO (some centres unmarked) [YT726]	8 (≈ 10.9 µM)
4 (≈ 5.14 µM)	CC[C@H]1OC(=O)C[C@@H](O)[C@H](C)[C@@H](O[C@@H]2OC(C)[C@@H](O)C(N(C)C)C2O)[C@@H](CCn2cc(-c3cnc4ccccc4c3)nn2)C[C@@H](C)C(=O)/C=C/C(C)=C/[C@@H]1CO (some centres unmarked) [YT733]	2 to 4 (≈ 2.57 to 5.14 µM)
2 to 4 (≈ 2.57 to 5.14 µM)	CC[C@H]1OC(=O)C[C@@H](O)[C@H](C)[C@@H](O[C@@H]2OC(C)[C@@H](O)C(N(C)C)C2O)[C@@H](CCn2cc(-c3ccc4ccccc4n3)nn2)C[C@@H](C)C(=O)/C=C/C(C)=C/[C@@H]1CO (some centres unmarked) [YT734]	2 to 4 (≈ 2.57 to 5.14 µM)
